Laboratory results published in patent publication US20090053582A1, “METHOD OF COATING BILIRUBIN OXIDASE” (SONY CORPORATION, priority 2007, published 2009).

Key:
[1] = system: bilirubin oxidase (BOD), free BOD 1 (not coated, stored at 4° C.); conditions: oxygen saturation
Description: As a control, BOD on which coating was not performed and which was stored at 4° C. for the same period of time as that is necessary for the process of preparing coated BOD 2 (hereinafter referred to as “free BOD 1”) was used.
(§1) The Michaelis constants (KM) and the reaction rate constants (kcat) of coated BOD 1, coated BOD 2, and free BOD 1 prepared above were measured under the conditions shown in Table 1 below. […] The amount of protein of each BOD sample was determined by bicinchoninic acid (BCA) colorimetric protein assay from a calibration curve of bovine serum albumin (BSA) used as a standard protein.

[2] = system: bilirubin oxidase (BOD), coated BOD 1 (Reference Example)
Description: (§2) The solution was homogeneously added to the above acryloylated BOD solution, and the resulting solution was allowed to react for 60 minutes.
as §1

[3] = system: bilirubin oxidase (BOD), coated BOD 2 (Reference Example)
Description: as §2, §1

[4] = system: bilirubin oxidase (BOD), coated BOD 4 (Example 1, coated at 4° C.)
Description: (§3) First, 40 mg of BOD and 1 mg of ethylenediaminetetraacetic acid (EDTA) used as a stabilizer were dissolved in 3.8 mL of a 100 mM boric acid solution (pH 9.3). Subsequently, 6.0 mg of N-acryloxysuccinimide was dissolved in 0.2 mL of DMSO, and the solution was then gradually added to the boric acid buffer. The resulting solution was allowed to react at 4° C. for 10 hours. Subsequently, the resulting acryloylated BOD in which acryloyl groups were introduced was purified using a Sephadex G25 column at 4° C.
(§4) Subsequently, at 4° C., a mixture prepared by mixing acrylamide and N,N′-methylenebisacrylamide in a molar ratio of 10:1 was dissolved in 0.5 mL of deionized water free of oxygen. The solution was homogeneously added to the above acryloylated BOD solution, and the resulting solution was allowed to react for 60 minutes. The reaction was further performed in the presence of nitrogen at 4° C. for 60 minutes. Finally, the coated BOD (hereinafter referred to as “coated BOD 3”) was purified using a Sephadex G75 column.
(§5) The Michaelis constants (KM) and the reaction rate constants (kcat) of coated BOD 3, coated BOD 4, free BOD 2, and free BOD 3 prepared above were measured under the conditions shown in Table 4. […] The amount of protein of each BOD sample was determined by BCA colorimetric protein assay from a calibration curve of BSA used as a standard protein.

[5] = system: bilirubin oxidase (BOD), coated BOD 3 (Example 1, coated at 4° C.)
Description: as §3, §4, §5

[6] = system: bilirubin oxidase (BOD), free BOD 2 (not coated, stored at 25° C.); conditions: ABTS, pH 7.0, 25° C., oxygen saturation
Description: (§6) As controls, BOD on which coating was not performed and which was stored at 25° C. for the same period of time as that is necessary for the process of preparing coated BOD 4 (hereinafter referred to as “free BOD 2”), and BOD on which coating was not performed and which was stored at 4° C. for the same period of time as that is necessary for the process of preparing coated BOD 4 (hereinafter referred to as “free BOD 3”) were used.
as §5

[7] = system: bilirubin oxidase (BOD), free BOD 3 (not coated, stored at 4° C.); conditions: oxygen saturation
Description: as §6, §5

kcat ([1]; free BOD 1, ABTS, pH 7.0, 25° C.): 234 s⁻¹
Km ([1]; read-out: KM,ABTS, free BOD 1, 712 pM, ABTS 0.05 to 10 mM, pH 7.0 sodium phosphate, 25° C., 730 nm): 307 µM
kcat ([2]; coated BOD 1, ABTS, pH 7.0, 25° C., oxygen saturation): 10.2 s⁻¹
Michaelis constant (KM) compared with free BOD 1 ([2]; coated BOD 1 vs free BOD 1): no significant difference
Km ([2]; read-out: KM,ABTS, coated BOD 1, 2.05 nM, ABTS 0.05 to 10 mM, pH 7.0 sodium phosphate, 25° C., oxygen saturation, 730 nm): 383 µM
kcat ([3]; coated BOD 2, ABTS, pH 7.0, 25° C., oxygen saturation): 1.92 s⁻¹
Michaelis constant (KM) compared with free BOD 1 ([3]; coated BOD 2 vs free BOD 1): no significant difference
Km ([3]; read-out: KM,ABTS, coated BOD 2, 19.7 nM, ABTS 0.05 to 10 mM, pH 7.0 sodium phosphate, 25° C., oxygen saturation, 730 nm): 405 µM
kcat ([4]; coated BOD 4, ABTS, pH 7.0, 25° C., oxygen saturation): 52.7 s⁻¹
Michaelis constant (KM) compared with free BOD 2 and free BOD 3 ([4]; coated BOD 4 vs free BOD 2 and free BOD 3): about twice
Km ([4]; read-out: KM,ABTS, coated BOD 4, 3.30 nM, ABTS 0.05 to 7 mM, pH 7.0 sodium phosphate, 25° C., oxygen saturation, 730 nm): 670 µM
kcat ([5]; coated BOD 3, ABTS, pH 7.0, 25° C., oxygen saturation): 52.5 s⁻¹
Michaelis constant (KM) compared with free BOD 2 and free BOD 3 ([5]; coated BOD 3 vs free BOD 2 and free BOD 3): about twice
Km ([5]; read-out: KM,ABTS, coated BOD 3, 1.09 nM, ABTS 0.05 to 7 mM, pH 7.0 sodium phosphate, 25° C., oxygen saturation, 730 nm): 570 µM
kcat [6]: 158 s⁻¹
kcat ([7]; free BOD 3, ABTS, pH 7.0, 25° C.): 216 s⁻¹
Km ([7]; read-out: KM,ABTS, free BOD 3, 0.629 nM, ABTS 0.05 to 7 mM, pH 7.0 sodium phosphate, 25° C., 730 nm): 358 µM
SMILES: CCn1c(=NN=c2sc3cc(S(=O)(=O)O)ccc3n2CC)sc2cc(S(=O)(=O)O)ccc21.N.N [ABTS, 2,2′-Azino-bis(3-ethylbenzothiazoline-6-sulfonic acid) diammonium salt]
